Measurements from US9434692B2, “Pyrazole derivatives as modulators of the 5-HT2A serotonin receptor useful for the treatment of disorders related thereto” (Arena Pharmaceuticals, Inc., priority 2006, dated 2016).

Columns and labels:
normal volunteers = assay: Afternoon nap model of insomnia in normal volunteers; assay type: in vivo, human
Description: APD125, a potent and selective 5-HT2A serotonin receptor inverse agonist is a member of the genus disclosed in the European Patent EP1558582. […] Sleep onset latency was not decreased by APD125. In the afternoon nap model, APD125 decreased microarousals, the number of sleep stage shifts, and number of awakenings after sleep onset.

healthy adults = assay: Phase 1 trials, waking EEG; assay type: in vivo, human
diabetic rats = conditions: cited from earlier work; for reduction in saphenous sensory conduction velocity: 14.9% reduction in diabetic rats; for correction of sciatic motor conduction deficit: 19.8% deficit in diabetic rats, range over all three drugs; for reduction in sciatic endoneurial blood flow: 44.7% reduction in diabetic rats
[1] = test system: DOI-induced hypolocomotion; assay: Attenuation of DOI-induced hypolocomotion in rats; assay type: in vivo, Sprague-Dawley rats; conditions: compound 1-10 mg/kg p.o., DOI 1 mg/kg s.c.
Experimental: In this example, compounds of the invention were tested for inverse agonist activity by determining whether these compounds could attenuate DOI-induced hypolocomotion in rats in a novel environment. DOI is a potent 5-HT2A/2C receptor agonist that crosses the blood-brain barrier. The standard protocol used is described briefly below.
Male Sprague-Dawley rats weighing between 200-350 g were used for all tests. Rats were housed three to four per cage.
(R)-DOI HCl (C11H16INO2.HCl) was obtained from Sigma-Aldrich, and was dissolved in 0.9% saline. Compounds of the invention were synthesized at Arena Pharmaceuticals Inc., San Diego, Calif., and were dissolved in 100% PEG400. DOI was injected s.c. in a volume of 1 mL/kg, while compounds of the invention were administered p.o. in a volume of 1 mL/kg.
The “Motor Monitor” (Hamilton-Kinder, Poway, Calif.) was used for all activity measurement. This apparatus recorded rears using infrared photobeams. […]
In determining the effects of compounds of the invention on DOI-induced hypoactivity, animals were first injected with vehicle or the compound of the invention (1-10 mg/kg) in their home cages. […] Ten minutes after DOI administration, animals were placed into the activity apparatus and rearing activity was measured for 10 min.
Results (total rears over 10 minutes) were analyzed by t-test. […]

[2] = molecular target: human 5-HT2A serotonin receptor (Homo sapiens (Human), UniProt P28223); assay: [125I]DOI radioligand binding assay; conditions: 0.5 nM [125I]DOI, COS7 membranes, recombinant human 5-HT2A
Experimental: Compounds of the invention were tested for their ability to bind to a 5-HT2A serotonin receptor clone membrane preparation using a radioligand binding assay. Briefly, COS cells were transiently transfected with a pCMV expression vector containing a human 5-HT2A receptor (for the sequence of the receptor see U.S. Pat. No. 6,541,209, SEQ ID NO:24).
COS7 cells transfected with recombinant human 5-HT2A serotonin receptors were cultured for 48 h post transfection, collected, washed with ice-cold phosphate buffered saline, pH 7.4 (PBS), and then centrifuged at 48,000 g for 20 min at 4° C. The cell pellet was then resuspended in wash buffer containing 20 mM HEPES pH 7.4 and 0.1 mM EDTA, homogenized on ice using a Brinkman polytron, and recentrifuged at 48,000 g for 20 min at 4° C. The resultant pellet was then resuspended in 20 mM HEPES, pH 7.4, homogenized on ice, and centrifuged (48,000 g for 20 min at 4° C.). Crude membrane pellets were stored at −80° C. until used for radioligand binding assays.
Radioligand binding assays for human 5-HT2A serotonin receptor was conducted using the 5-HT2 agonist [^125I]DOI as radioligand. To define nonspecific binding, 10 μM DOI was used for all assays. For competitive binding studies, 0.5 nM [^125I]DOI was used and compounds were assayed over a range of 0.01 nM to 10 μM. Assays were conducted in a total volume of 200 μl in 96-well Perkin Elmer GF/C filter plates in assay buffer (50 mM Tris-HCl, pH 7.4, 0.5 mM EDTA, 5 mM MgCl2, and 10 μM pargyline). Assay incubations were performed for 60 min at room temperature and were terminated by rapid filtration under vacuum pressure of the reaction mixture over Whatman GF/C glass fiber filters presoaked in 0.5% PEI using a Brandell cell harvester. Filters were then washed several times with ice-cold wash buffer (50 mM Tris-HCl, pH 7.4). Plates were then dried at room temperature and counted in a Wallac MicroBeta scintillation counter.

JC virus = conditions: cited from earlier work
[3] = test system: spontaneously hypertensive rats; conditions: cited from earlier work
glaucoma patients = conditions: cited from earlier work
heatstroke = conditions: in vivo; cited from earlier work
[4] = test system: lower back pain, leg pain and numbness; conditions: humans, lumbar disc herniation; cited from earlier work
diabetic nephropathy = conditions: 24 months of treatment; cited from earlier work
pain in rats = conditions: cited from earlier work
[5] = test system: DOCA-salt induced hypertension; conditions: rats; cited from earlier work

COc1ccc(NC(=O)Nc2ccc(F)cc2F)cc1-c1c(Br)cnn1C [APD125]
REM sleep (normal volunteers; human, in vivo): at the expense of REM sleep
microarousals (normal volunteers; human, in vivo): decreased
number of awakenings after sleep onset (normal volunteers; human, in vivo): decreased
number of sleep stage shifts (normal volunteers; human, in vivo): decreased
sleep onset latency (normal volunteers; human, in vivo): not decreased
slow wave sleep and associated parameters (normal volunteers; primarily during the early part of sleep): increased slow wave sleep and associated parameters in a dose-dependent manner
dose of maximal effects on waking EEG (healthy adults): 40 to 80 mg
effects on waking EEG (healthy adults): vigilance-lowering effects
time of peak effects after dosing (healthy adults; waking EEG): 24 h

O=CN1CCC(C(=O)NCCN2CCC(=C3c4ccccc4C=Cc4ccccc43)CC2)CC1 [AT-1015]
reduction in saphenous sensory conduction velocity (diabetic rats): completely reversed
correction of sciatic motor conduction deficit (diabetic rats): 82.6-99.7%
reduction in sciatic endoneurial blood flow (diabetic rats): completely reversed

CCn1cc(Cl)c(C(=O)N2CCN(CC(=O)c3ccc(F)cc3)CC2)n1 [Compound 7, 2-[4-(4-Chloro-1-ethyl-1H-pyrazole-3-carbonyl)-piperazin-1-yl]-1-(4-fluoro-phenyl)-ethanone]
attenuation of DOI-induced hypolocomotion (total rears over 10 minutes) [1]: attenuated DOI-induced hypolocomotion

Cn1nc(C(=O)N2CCN(CC(=O)c3ccc(F)cc3)CC2)cc1-c1ccco1 [Compound 66, 1-(4-Fluoro-phenyl)-2-[4-(5-furan-2-yl-1-methyl-1H-pyrazole-3-carbonyl)-piperazin-1-yl]-ethanone]
IC50 [2]: 4.8 nM

Cc1[nH]nc(C(=O)N2CCN(CC(=O)c3ccc(F)cc3)CC2)c1F [Compound 42, 2-[4-(4-Fluoro-5-methyl-1H-pyrazole-3-carbonyl)-piperazin-1-yl]-1-(4-fluoro-phenyl)-ethanone]
IC50 [2]: 11 nM

Cc1nc2sccn2c(=O)c1CCN1CCC(=C(c2ccc(F)cc2)c2ccc(F)cc2)CC1 [ritanserin]
reduction in saphenous sensory conduction velocity (diabetic rats): completely reversed
correction of sciatic motor conduction deficit (diabetic rats): 82.6-99.7%
reduction in sciatic endoneurial blood flow (diabetic rats): completely reversed
JC virus infection of human glial cells (JC virus): inhibited JC virus infection of human glial cells

Cn1nc(C(=O)N2CCN(CC(=O)c3ccc(F)cc3)CC2)cc1C(F)(F)F [Compound 35, 1-(4-Fluoro-phenyl)-2-[4-(1-methyl-5-trifluoromethyl-1H-pyrazole-3-carbonyl)-piperazin-1-yl]-ethanone]
attenuation of DOI-induced hypolocomotion (total rears over 10 minutes) [1]: attenuated DOI-induced hypolocomotion

Cc1[nH]nc(C(=O)N2CCN(CC(=O)c3ccc(F)cc3)CC2)c1Br [Compound 52, 2-[4-(4-Bromo-5-methyl-1H-pyrazole-3-carbonyl)-piperazin-1-yl]-1-(4-fluoro-phenyl)-ethanone]
IC50 [2]: 4.6 nM

O=C(c1ccc(F)cc1)C1CCN(CCn2c(=O)[nH]c3ccccc3c2=O)CC1 [ketanserin]
blood pressure [3]: stabilize blood pressure
intra ocular pressure (IOP) (glaucoma patients): significantly lower IOP
protection during heatstroke (heatstroke): protect against circulatory shocks, intracranial hypertension, and cerebral ischemia during heatstroke
JC virus infection of human glial cells (JC virus): inhibited JC virus infection of human glial cells

COc1cccc(CCc2ccccc2OCC(CN(C)C)OC(=O)CCC(=O)O)c1 (centres unmarked) [sarpogrelate]
treatment of lower back pain, leg pain and numbness associated with sciatica [4]: effective treatment
urinary albumin excretion level (diabetic nephropathy): significantly reduced
analgesic effect on thermal induced pain (pain in rats; intraperitoneal administration): significant analgesic effect
analgesic effect on inflammatory pain (pain in rats; intrathecal or intraperitoneal administration): significant analgesic effect
intra ocular pressure (IOP) (glaucoma patients): significantly lower IOP
reduction in saphenous sensory conduction velocity (diabetic rats): completely reversed
correction of sciatic motor conduction deficit (diabetic rats): 82.6-99.7%
reduction in sciatic endoneurial blood flow (diabetic rats): completely reversed

CN1CCN2c3ccccc3Cc3ccccc3C2C1 (centres unmarked) [Mainserin]
DOCA-salt induced hypertension [5]: prevent DOCA-salt induced hypertension

Cn1cc(Cl)c(C(=O)N2CCN(CCc3ccccc3F)CC2)n1 [Compound 24, (4-Chloro-1-methyl-1H-pyrazol-3-yl)-{4-[2-(2-fluoro-phenyl)-ethyl]-piperazin-1-yl}-methanone]
IC50 [2]: 36 nM
